Where a SMILES comes first, the peptide text is derived from it. Bridges are numbered along the chain shown (N, C = ends). [ ]: non-standard residue; d: D form. The star is where a group is joined. hPhe(3-Cl-4-CF3) = N[C@@H](CCc1ccc(C(F)(F)F)c(Cl)c1)C(=O)O; NPrPhe(4-CF3) = CCCN[C@@H](Cc1ccc(C(F)(F)F)cc1)C(=O)O; NMeGly(cPent) = CN[C@H](C(=O)O)C1CCCC1; NMeD = CN[C@@H](CC(=O)O)C(=O)O; NMeL = CN[C@@H](CC(C)C)C(=O)O; Morpholide = C1CN(*)CCO1; Aze = O=C(O)[C@@H]1CCN1; Ac4c = NC1(C(=O)O)CCC1; Sar = CNCC(=O)O
Assays:
[1] = target: GDP-bound NRAS wild-type protein (Homo sapiens, UniProt P01111); experiment: Binding to NRAS by surface plasmon resonance (SPR), Single Cycle Kinetics; details: SPR; for NRAS/KRAS (ratio of KD value with respect to NRAS to KD value with respect to KRAS) / NRAS/KRAS (ratio of KD value for NRAS to KD value for KRAS): GDP-bound NRAS wild-type vs GDP-bound KRAS wild-type
Sequence of GDP-bound NRAS wild-type protein (P01111 whole entry): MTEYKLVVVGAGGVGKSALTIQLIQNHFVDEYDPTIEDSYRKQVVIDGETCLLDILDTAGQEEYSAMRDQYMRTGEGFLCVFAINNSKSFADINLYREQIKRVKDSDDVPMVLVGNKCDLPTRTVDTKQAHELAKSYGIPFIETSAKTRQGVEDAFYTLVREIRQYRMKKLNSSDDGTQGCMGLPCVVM

[2] = target: GDP-bound HRAS wild-type protein (Homo sapiens, UniProt P01112); experiment: Binding to HRAS by surface plasmon resonance (SPR), Single Cycle Kinetics; details: SPR; for HRAS/KRAS (ratio of KD value with respect to HRAS to KD value with respect to KRAS) / HRAS/KRAS (ratio of KD value for HRAS to KD value for KRAS): GDP-bound HRAS wild-type vs GDP-bound KRAS wild-type
Sequence of GDP-bound HRAS wild-type protein (P01112 whole entry): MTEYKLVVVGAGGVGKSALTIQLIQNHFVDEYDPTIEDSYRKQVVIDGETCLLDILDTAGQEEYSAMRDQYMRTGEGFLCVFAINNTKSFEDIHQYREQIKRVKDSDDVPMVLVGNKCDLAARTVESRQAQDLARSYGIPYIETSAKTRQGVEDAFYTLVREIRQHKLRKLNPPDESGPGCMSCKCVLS

Row | SMILES | NRAS/KRAS (ratio of KD for GDP-bound NRAS wild-type to KD for KRAS) [1] | HRAS/KRAS (ratio of KD for GDP-bound HRAS wild-type to KD for KRAS) [2] | NRAS/KRAS (ratio of KD value with respect to NRAS to KD value with respect to KRAS) [1] | HRAS/KRAS (ratio of KD value with respect to HRAS to KD value with respect to KRAS) [2] | NRAS/KRAS (ratio of KD value for NRAS to KD value for KRAS) [1] | HRAS/KRAS (ratio of KD value for HRAS to KD value for KRAS) [2]
1 | CCCN1C(=O)CN(C)C(=O)CN(C)C(=O)[C@H]([C@@H](C)CC)NC(=O)[C@H](CC(C)C)N(C)C(=O)C[C@@H](C(=O)N2CCOCC2)NC(=O)[C@H](C2CCCC2)N(C)C(=O)C2(CCC2)NC(=O)[C@@H]2CCCN2C(=O)[C@H](CCc2ccc(C(F)(F)F)c(Cl)c2)NC(=O)CN(C)C(=O)[C@@H]1Cc1ccc(C(F)(F)F)cc1 [PP0320] ([NMeL]I[Sar][Sar][NPrPhe(4-CF3)][Sar][hPhe(3-Cl-4-CF3)]P[Ac4c][NMeGly(cPent)]D-Morpholide; lactam N-11) | B (a compound having 3 or more and less than 10 is denoted as B) | B (a compound having 3 or more and less than 10 is denoted as B) | – | – | – | –
2 | C#CC[C@H]1C(=O)N[C@@H]([C@@H](C)CC)C(=O)N(C)CC(=O)N(C)[C@H]2C/C=C\CCN(C2=O)[C@@H](Cc2ccc(C(F)(F)F)cc2)C(=O)N(C)CC(=O)N[C@@H](CCc2ccc(C(F)(F)F)c(OC)c2)C(=O)N2C[C@@H](C)C[C@H]2C(=O)NC2(CC(C)(C)C2)C(=O)N(C)[C@@H](C2CCCC2)C(=O)N(C)[C@H](C(=O)N(C)CC)CC(=O)N1C [PP2055] | – | – | A (a compound having 10 or more and less than 20 is denoted as A) | B (a compound having 3 or more and less than 10 is denoted as B) | – | –
3 | CCCOC[C@H]1C(=O)N[C@@H]([C@@H](C)CC)C(=O)N(C2CC2)CC(=O)N(C)[C@H]2C/C=C\CCN(C2=O)[C@@H](Cc2ccc(C(F)(F)F)cc2)C(=O)N(C)CC(=O)N[C@@H](CCc2ccc(C(F)(F)F)c(OC)c2)C(=O)N2C[C@H](OCC)C[C@H]2C(=O)N(C)C2(CCC2)C(=O)N(C)[C@@H](C2CCCC2)C(=O)N(C)[C@H](C(=O)N(C)C)CC(=O)N1C [PP2318] | – | – | A (a compound having 10 or more and less than 20 is denoted as A) | A (a compound having 10 or more and less than 20 is denoted as A) | – | –
4 | CCO[C@@H]1C[C@H]2C(=O)NC3(CC(C)(C)C3)C(=O)N(C)[C@@H](C3CCCC3)C(=O)N(C)[C@H](C(=O)N(C)C)CC(=O)N(C)[C@@H](CC3CCC3)C(=O)N[C@@H]([C@@H](C)CC)C(=O)N(C)CC(=O)N(C)[C@H]3C/C=C\CCN(C3=O)[C@@H](Cc3ccc(C(F)(F)F)cc3)C(=O)N(C)CC(=O)N[C@@H](CCc3cc(F)c(Cl)c(F)c3)C(=O)N2C1 [PP1762] | – | – | – | – | A (a compound having 10 or more and less than 20 is denoted as A) | A (a compound having 10 or more and less than 20 is denoted as A)
5 | CC[C@H](C)[C@@H]1NC(=O)[C@H](CC)N(C)C(=O)C[C@@H](C(=O)N(C)CC)N(C)C(=O)[C@H](C2CCCC2)N(C)C(=O)C2(CCC2)NC(=O)[C@@H]2C[C@@H](C)CN2C(=O)[C@H](CCc2ccc(C(F)(F)F)c(OC)c2)NC(=O)CN(C)C(=O)[C@H](Cc2ccc(C)cc2)N2CC/C=C\C[C@@H](C2=O)N(C)C(=O)CN(C)C1=O [PP1855] | – | – | – | – | AA (a compound having 20 or more is denoted as AA) | A (a compound having 10 or more and less than 20 is denoted as A)
6 | CCCN1C(=O)CN(C)C(=O)[C@@H]2CCN2C(=O)[C@H]([C@@H](C)CC)NC(=O)[C@H](CC(C)C)N(C)C(=O)C[C@@H](C(=O)N2CCOCC2)N(C)C(=O)[C@H](C2CCCC2)N(C)C(=O)C2(CCC2)NC(=O)[C@@H]2CCCN2C(=O)[C@H](CCc2ccc(C(F)(F)F)c(Cl)c2)NC(=O)CN(C)C(=O)[C@@H]1Cc1ccc(C(F)(F)F)cc1 [PP0402] ([NMeL]I[Aze][Sar][NPrPhe(4-CF3)][Sar][hPhe(3-Cl-4-CF3)]P[Ac4c][NMeGly(cPent)][NMeD]-Morpholide; lactam N-11) | B (a compound having 3 or more and less than 10 is denoted as B) | C (A compound having a KD ratio of 0.1 or more and less than 3 is denoted as C) | – | – | – | –

From patent US20250230193A1, “CYCLIC COMPOUND HAVING SELECTIVE KRAS INHIBITORY EFFECT ON HRAS AND NRAS” (CHUGAI SEIYAKU KABUSHIKI KAISHA, priority 2022, published 2025)
